Assays:
Varroa mite = experiment: Miticidal activity in 5-frame honey bee colonies (sticky board counts); assay type: in vivo, Varroa jacobsoni
Method: This set of bioassays was conducted in 5-frame colonies. We tested miticidal activity of 30% concentration 2-heptanone in an acrylic block dispenser. Four colonies were established for each of the following treatments: 2-heptanone, Apistan® (a commercially available miticide for control of Varroa), and no treatment (i.e., Controls). Before each treatment, counts were made of the number of mites that dropped on to Dewill® Varroa Mite Detector Inserts (hereinafter denoted as “sticky boards”) placed at the bottom of colonies for one week (pre-treatment counts). A new sticky board then was inserted at the bottom of each colony, and either a single acrylic block dispenser with 30% 2-heptanone made as in Example 6 (surface area=28.3 cm^2) or a single Apistan® strip was placed between the frames. The Controls comprised no treatment. The number of mites on the sticky boards was counted weekly for 3-4 weeks afterwards (treatment interval). New sticky boards were inserted at the beginning of each week. At the end of the test period, the 2-heptanone and Apistan® were removed, and a new sticky board was inserted on the bottom of the colonies. A new Apistan® strip then was placed in the colonies to kill any remaining mites (post-treatment interval). The number of mites on the sticky board was counted after the colony was exposed to the new Apistan® strip for one week. The % Reduction in the Varroa Population was estimated by summing all the mites counted on the sticky board during the 3 or 4 week treatment interval and dividing it by the total number of mites counted for the colony during both the treatment and post-treatment intervals.
When we removed the acrylic strips from the colony after three weeks, we could still detect the odor of 2-heptanone. We repeated the test with new colonies, and in this trial (Trial-2) left the 2-heptanone and Apistan® strips in the colony for 4 weeks. We then placed the post-treatment Apistan® strips in the colonies.
This test (Trial 3) was carried out in 5-frame colonies as described above except for the following changes. […]

Varroa mites [1] = experiment: Attractant petri dish bioassay with 20% 2-heptanone gel formulation; assay type: in vivo, Varroa jacobsoni; settings: 40 μL of 20% 2-heptanone gel
Method: We conducted bioassays to deternine if 2-heptanone attracts Varroa mites. In the first bioassay, we exposed free-running adult mites to volatiles from a 20% 2-heptanone in a gel formulation. […] 40 μL of 20% 2-heptanone in a gel formulation was added to a weighing boat located in the center of the petri dish. Control dishes were set up as described above with empty weighing boats in the center. Within 24 hours 27.3% of the mites were found in the gel formulation of 2-heptanone located in the weighing boat in the center of the petri dish. No mites were found in the weighing boat in the Control dish. The bioassay was repeated using the same procedure as described above. In the second replicate, 16.7% of the mites were found in the gel formulation of 2-heptanone located in the weighing boat in the center of the petri dish and again 0% were found in the weighing boats of the Control dishes.

Varroa mites [2] = experiment: Varroa trapping device in a Varroa-infested 9-frame colony; assay type: in vivo, Varroa jacobsoni; settings: trap coated with 20% 2-heptanone gel, between brood frames, after 48 hrs
Description: In a second test to determine if 2-heptanone is an attractant, a Varroa trapping device was placed in a Varroa-infested 9-frame colony for 48 hrs. The device was constructed by placing a 2.54 cm^2 piece of Dewill® Varroa Mite Detector Insert coated with a 20% concentration of 2-heptanone in a gel formulation and covered with a 0.63 cm (0.25 inch) wire mesh. A wire was placed through the top of the trap so that the trap dangled between the frames in the colony. The device was placed between frames containing brood.

[3] = Diffusion of 2-heptanone from controlled release strip; assay type: physicochemical; settings: polyurethane core with 60 g 2-heptanone, in 5-frame colony
Method: This test (Trial 3) was carried out in 5-frame colonies as described above except for the following changes. In this test, 2-heptanone was released using a controlled release strip as described in U.S. Pat. No. 5,750,129. In brief, the controlled release strip was composed of a polymer sleeve 20 cm long and 5 cm wide in which a polyurethane core containing 60 g 2-heptanone was sealed. The 2-heptanone strip was placed on the top of the frame (top bar). The controlled diffusion of 2-heptanone through the membrane occurred over a period of 3 weeks. A new 2-heptanone controlled release strip was placed on the top bar after 3 weeks. The Apistan® strip was placed between the frames as described above. The Control comprised no treatment.

[4] = in words; cited from earlier work

CCCCCC(C)=O [2-Heptanone]
% Reduction in Varroa Mite Population ± S.E. (Varroa mite; Trial 1, 3 week treatment, 30% 2-heptanone acrylic block or single Apistan strip, Control 42.2 ± 7.0): 61.8 ± 8.5 a % | % Reduction in Varroa Mite Population ± S.E. (Varroa mite; Trial 2, 4 week treatment, 30% 2-heptanone acrylic block or single Apistan strip, Control 43.6 ± 4.2): 73.6 ± 13.7 a % | % Reduction in Varroa Mite Population ± S.E. (Varroa mite; Trial 3, controlled release strip with 60 g 2-heptanone on top bar, renewed after 3 weeks, or Apistan strip, Control 69.35 ± 4.8): 87.05 ± 4.4 a % | % of the mites found in the gel formulation in the weighing boat (Varroa mites [1]; second replicate, Control 0%): 16.7% | % of the mites found in the gel formulation in the weighing boat (Varroa mites [1]; within 24 hours, first bioassay, Control none): 27.3% | Varroa mites found stuck in the gel on the trap (Varroa mites [2]): several hundred | period of controlled diffusion of 2-heptanone through the membrane [3]: 3 weeks | solubility in water [4]: very slightly soluble in water

— patent US7423068B2, “Control of parasitic mites of honey bees” (The United States of America as represented by the …, priority 2001, dated 2008)
